Test results taken from patent US9586949B2, “Aza-heteroaryl compounds as PI3K-gamma inhibitors” (Incyte Corporation, priority 2015, dated 2017).
pIC50: −log10 of the molar value.

What was measured:
[1] = tested on: Phosphorylated Ribosomal Protein S6 (RPS6); experiment: THP-1 RPS6 ELISA Assay; format: cell-based, Human; conditions: THP-1 cells, serum starved, 2 hours with compound, 10 nM MCP-1 for 15 minutes; read-out: THP p-RPS6 ELISA IC50
Description: To measure the Phosphorylated Ribosomal Protein S6 (RPS6) in cell lysates, THP-1 cells (Human Acute Monocytic Leukemia) are purchased from ATCC (Manassas, Va.) and maintained in RPMI with 10% FBS (Gibco/Life Technologies, Carlsbad, Calif.). For the assay, THP-1 cells are serum starved overnight in RPMI, then plated in RPMI (2×10^5 cells/well in 90 μL) into 96-well flat-bottom tissue culture treated plates (Corning, Corning, N.Y.), in the presence or absence of a concentration range of test compounds. Covered plates are incubated for 2 hours at 37° C., 5% CO2 then treated with or without 10 nM MCP-1 (MYBioSource, San Diego, Calif.) for 15 minutes at 37° C., 5% CO2. Plates are centrifuged at 1600 RPM and supernatants are removed. Cells are lysed in Lysis Buffer (Cell Signaling, Danvers, Mass.) with Protease Inhibitor (Calbiochem/EMD, Germany), PMSF (Sigma, St Louis Mo.), HALTS (Thermo Fisher, Rockford, Ill.) for 30 min on wet ice. Cell lysates are frozen at −80° C. before testing. The lysates are tested in the Human/Mouse/Rat Phospho-RPS6 ELISA (R&D Systems, Inc. Minn, Minn.). The plate is measured using a microplate reader (SpectraMax M5-Molecular Devices, LLC Sunnyvale, Calif.) set to 450 nm with a wavelength correction of 540. […]

[2] = molecular target: PI3Kδ (p110δ/p85α) Recombinant Human Protein (Homo sapiens (Human), UniProt O00329); experiment: PI3Kδ Scintillation Proximity Assay; format: biochemical; conditions: 20 μM PIP2, 2 μM ATP, 3.4 nM PI3Kδ, 120 min; read-out: PI3K-delta SPA IC50
Sequence of PI3Kδ (p110δ/p85α) Recombinant Human Protein (O00329 whole entry): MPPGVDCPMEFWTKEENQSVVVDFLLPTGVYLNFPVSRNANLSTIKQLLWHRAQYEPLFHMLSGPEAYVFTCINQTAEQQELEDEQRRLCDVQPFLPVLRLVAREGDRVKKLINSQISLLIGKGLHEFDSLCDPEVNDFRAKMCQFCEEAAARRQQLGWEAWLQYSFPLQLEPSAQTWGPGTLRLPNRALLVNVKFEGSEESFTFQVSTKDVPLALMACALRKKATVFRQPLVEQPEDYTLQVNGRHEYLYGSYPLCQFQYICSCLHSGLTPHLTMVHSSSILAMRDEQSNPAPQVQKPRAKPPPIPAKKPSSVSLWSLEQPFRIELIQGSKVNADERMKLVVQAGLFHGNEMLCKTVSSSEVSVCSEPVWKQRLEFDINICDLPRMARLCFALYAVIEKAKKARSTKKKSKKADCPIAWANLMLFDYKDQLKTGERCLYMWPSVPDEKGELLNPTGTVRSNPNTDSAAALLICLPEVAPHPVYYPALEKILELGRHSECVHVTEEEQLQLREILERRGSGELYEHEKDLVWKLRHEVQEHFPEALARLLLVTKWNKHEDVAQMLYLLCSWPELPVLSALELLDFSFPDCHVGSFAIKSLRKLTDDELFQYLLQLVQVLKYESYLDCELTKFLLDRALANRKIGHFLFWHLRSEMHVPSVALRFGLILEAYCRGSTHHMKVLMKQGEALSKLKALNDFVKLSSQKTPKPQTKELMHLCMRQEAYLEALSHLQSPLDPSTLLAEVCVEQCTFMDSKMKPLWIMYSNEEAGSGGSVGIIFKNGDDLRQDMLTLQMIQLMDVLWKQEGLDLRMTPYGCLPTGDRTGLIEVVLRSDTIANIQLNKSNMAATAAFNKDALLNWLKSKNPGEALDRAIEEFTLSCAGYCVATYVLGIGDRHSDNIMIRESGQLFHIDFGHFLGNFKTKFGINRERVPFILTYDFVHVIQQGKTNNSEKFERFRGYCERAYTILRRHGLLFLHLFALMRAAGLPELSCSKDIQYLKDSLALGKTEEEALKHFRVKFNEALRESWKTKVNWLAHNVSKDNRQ
Sequence of PI3Kδ (p110δ/p85α) Recombinant Human Protein (P27986 whole entry partner): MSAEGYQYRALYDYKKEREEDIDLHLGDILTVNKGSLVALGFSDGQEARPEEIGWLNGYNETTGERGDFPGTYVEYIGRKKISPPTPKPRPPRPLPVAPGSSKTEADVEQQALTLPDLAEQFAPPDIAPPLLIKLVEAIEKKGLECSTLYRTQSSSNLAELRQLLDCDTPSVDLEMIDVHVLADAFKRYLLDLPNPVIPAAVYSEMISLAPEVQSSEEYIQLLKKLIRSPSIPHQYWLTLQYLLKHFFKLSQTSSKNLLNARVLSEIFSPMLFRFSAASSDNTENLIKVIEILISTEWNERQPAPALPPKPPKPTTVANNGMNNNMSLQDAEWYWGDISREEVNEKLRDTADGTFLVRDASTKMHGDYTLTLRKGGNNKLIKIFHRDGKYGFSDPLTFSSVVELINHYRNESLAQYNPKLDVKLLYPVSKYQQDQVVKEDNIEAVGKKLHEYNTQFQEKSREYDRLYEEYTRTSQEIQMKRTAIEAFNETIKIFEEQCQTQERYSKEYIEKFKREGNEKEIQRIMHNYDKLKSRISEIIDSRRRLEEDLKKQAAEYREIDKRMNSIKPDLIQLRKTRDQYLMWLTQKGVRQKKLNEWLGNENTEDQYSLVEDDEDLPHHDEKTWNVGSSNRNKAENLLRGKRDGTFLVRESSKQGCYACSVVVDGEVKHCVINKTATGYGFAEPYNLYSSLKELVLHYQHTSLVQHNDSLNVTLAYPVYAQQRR

- pIC50 [1]: ≤ 5.30
- pIC50 [2]: > 6.00
Substance: N-(5-(2-(1H- Benzo[d]imidazol-2- yl)benzo[d]oxazol- 6-yl)pyridin-3- yl)ethanesulfonamide [Example 18]
